Here are results for 3 molecules from US20260285835A1, “SOLID FORM OF PYRROLIDONE DERIVATIVE AS GLUCOKINASE ACTIVATOR” (priority 2023, published 2026).

Where two headings read alike, the source gives them in different places.

Data set [1] in a line: Stability test in simulated gastric fluid (SGF). Type of data set: in vitro ADME. As to conditions: 37° C.
Procedure: 0.04 g of NaCl and 0.064 g of pepsin were dissolved in 0.14 mL of HCl, and water was added to bring the total volume to 20 mL. The pH of the test solution was about 1.20±0.05.
Then 200 μL of supernatant was pipetted and mixed completely again with 400 μL of cold acetonitrile containing 200 ng/mL tolbutamide (internal standard). 7) All samples were centrifuged at 4000 rpm, 4° C. for 20 min. • 8) 60 μL of supernatant was pipetted and mixed completely with 180 μL of ultra-pure water, and the mixture was subjected to LC-MS/MS analysis.
Data set [2] is described as follows: Stability test in simulated intestinal fluid (SIF). The data set is classed as in vitro ADME. The settings on record: 37° C.
Procedure: 0.136 g of KH2PO4 and 0.2 g of pancreatin were dissolved in water to obtain a final volume of 20 mL. The pH of the test solution was about 6.80±0.05.
Then 200 μL of supernatant was pipetted and mixed completely again with 400 μL of cold acetonitrile containing 200 ng/mL tolbutamide (internal standard). • 7) All samples were centrifuged at 4000 rpm, 4° C. for 20 min. • 8) 60 μL of supernatant was pipetted and mixed completely with 180 μL of ultra-pure water, and the mixture was subjected to LC-MS/MS analysis.
A short description of data set [3]: Simulated metabolic test in human intestine S9. The data set is classed as in vitro ADME.
Procedure: 73.21 g of K2HPO4·3H2O (AR grade) and 10.78 g of KH2PO4 (AR grade) were dissolved in ultra-pure water to obtain a final volume of 4000 mL and a final concentration of 100 mM. The pH of the final test solution was adjusted to 7.40±0.10 with H3PO4/KOH.
An Apricot automation workstation was used to add 50 μL/well of HIS9 solution to the corresponding wells of all reaction plates (blank, T0, T5, T15, T30, T45, T60).
An Apricot automation workstation was used to add 48 μL/well of PB to the corresponding wells of every reaction plate (blank, T0, T5, T15, T30, T45, T60) to start the reaction.
The reaction plates were incubated at 37° C., and timer was started. An Apricot automation workstation was used to add 300 μL/well of stop solution (cold acetonitrile containing 200 ng/mL tolbutamide (internal standard)) to the corresponding wells of each reaction plate at the appropriate end time point to stop the reaction.
Each plate was sealed and shaken for 10 minutes. Each plate was centrifuged at 4000 rpm and 4° C. for 20 minutes. After centrifugation, 100 μL of supernatant was transferred from each reaction plate to the corresponding analysis plate, and mixed well with 300 μL of ultra-pure water.
A short description of data set [4]: Caco-2 bi-directional permeability test. The settings on record: human; for metabolised at 2 h, 2 µM: Caco-2, pH 7.4, Compound A concentration 2.00 μM; for metabolised at 2 h, 10 µM: Caco-2, pH 7.4, Compound A concentration 10.0 μM; for metabolised at 2 h, 30 µM: Caco-2, pH 7.4, Compound A concentration 30.0 μM. Type of data set: in vitro ADME.
Procedure: (§1) Caco-2 cell culture: Caco-2 cells (purchased from American Type Culture Collection, ATCC) were inoculated on polyethylene film (PET) of a 96-well culture plate at a concentration of 1×10^5 cells/cm^2. The culture medium was replaced every 4 days until cell confluency to form cell monolayer on day 21 or 28.
(§2) Transport test: Transport buffer used in the test was Hanks' Balanced Salt Solution (HBSS) containing 10 mM 2-[4-(2-hydroxyethyl)-1-piperazinyl]ethanesulfonic acid (HEPES) with a pH of 7.40±0.05. […] The final concentration of DMSO in the incubation system was adjusted to <1%.
In another data set the test system is Caco-2 cells. The data set is described as follows: Caco-2 bi-directional permeability test. The data set is classed as in vitro ADME. A general note: Caco-2 monolayers are a common model of the intestinal barrier.
Data set [5] is classed as in vivo. As to conditions: rats.
Procedure: Each group was divided into 2 subgroups (intravenous bolus group (IV) and gavage group (PO)).
Whole blood samples (about 0.2 mL per time point) were collected at pre-dose (0), 0.083, 0.25, 0.5, 1, 2, 4, 8, 12, and 24 hours post-dose by jugular vein puncture. All the blood samples were immediately transferred into labeled pre-chilled commercial microcentrifuge tubes containing 4 μL of 0.5M K2-EDTA and 10 μL of cocktail stabilizer. Samples were placed on wet ice until centrifugation (within 30 min). Plasma samples were then prepared by centrifuging the blood samples at approximately 4° C., 3200×g for 10 minutes. Supernatant plasma was pipetted, then quickly frozen over dry ice, and then kept at −60° C. or lower temperature until LC-MS/MS analysis. The cocktail stabilizer was prepared according to the following Table 8:
The plasma concentrations were subjected to a non-compartmental pharmacokinetic analysis by using the WinNonlin™ software program (version 6.3).
The next data set relates to C57BL/6J mice. The data set is described as follows: Pharmacodynamic study: OGTT blood glucose and insulin level in C57BL/6J mice. Type of data set: in vivo. The settings on record: for Blood glucose level at 0 min (pre-glucose) vs vehicle control group: each administration group, 1 hour after administration, dose-response relationship. The procedure: There were 7 groups of mice, with 8 mice in each group. […] Oral glucose tolerance test (OGTT) was performed 1 hour after administration. The blood glucose level in mice was tested before administration (−60 min), before sugar administration (0 min), and at 15 min, 30 min, 60 min, and 120 min after sugar administration. In addition, 40 μl of blood was collected from the tail tip before sugar administration (0 min) and at 15 min after sugar administration to collect the plasma for an insulin level test.
All data was transferred into an Excel document. The blood glucose results were expressed in mg/dL and expressed as MEAN±SEM. Differences between multiple groups were analyzed using Dunnett's method in one-way analysis of variance (ANOVA) or two-way analysis of variance (ANOVA) with Graphpad Prism 8 software for comparison, and the differences were considered statistically significant when the P value was less than 0.05.

Data set [6] is classed as physicochemical. As to conditions: room temperature.
The nature of data set [7]: Dynamic vapour sorption (DVS) test. Type of data set: physicochemical. The settings on record: 25° C. The procedure: A dynamic vapour sorption (DVS) test was conducted on crystal form A of the free state and crystal form B of the hydrochloride.
A certain amount of powder was taken and put into a sample pan, and hygroscopicity of the sample was evaluated with DVS according to the following instrument method: […]

A short description of data set [8]: Forced degradation stability test (heat, humidity and heat, light). The settings on record: light box 10 days. Type of data set: physicochemical.
Procedure: About 10 mg of the sample powder was weighed and placed in a transparent vial, an amber vial, and a transparent vial sealed with aluminum foil, respectively. Those vials were placed in a light box for 10 days, with a total illumination of 1.2×10^6 Lux·hr and a near-UV energy not less than 200w·hr/m^2, for photostability evaluation.
The samples were taken at each time point for HPLC and XRPD analysis to evaluate the chemical and physical stability.
Data set [9] is described as follows: High-temperature stability (60° C.) of free state crystal form A. Type of data set: physicochemical.
Source text: (§3) The resulting sample was sampled at day 6, day 14 and day 34 for HPLC analysis.
Data set [10] can be described thus: High-humidity stability (90% RH) of free state crystal form A. The data set is classed as physicochemical.
Source text: as §3
A short description of data set [11]: Photostability (direct sunlight) of free state crystal form A. The data set is classed as physicochemical.
Source text: The resulting sample was sampled at day 4 and day 15 for HPLC analysis.
[12] abbreviates: read-out: Average conversion rate to parent drug HMS5552 (%) A→B.
[13] abbreviates: read-out: Average conversion rate to parent drug HMS5552 (%) B→A.
Setting [14] is: Compound A concentration 2.00 μM.
[15] abbreviates: Compound A concentration 10.0 μM, 120 min.
[16] abbreviates: Compound A concentration 30.0 μM, 120 min.

Procedure for Caco-2 cells: as §1, §2

As to `CC(C)C[C@@H](C(=O)Nc1ccn(C[C@@H](O)COC(=O)c2cccnc2)n1)N1CC(Oc2ccccc2Cl)=CC1=O` [Compound A, (R)-3-(3-((S)-2-(4-(2-chlorophenoxy)-2-oxo-2,5-dihydro-1H-pyrrol-1-yl)-4-methylpentanamido)-1H-pyrazol-1-yl)-2-hydroxypropyl nicotinate], the “Parent drug HMS5552 (%)” value in data set [1] (generation in SGF, 2 μM, 0 hr) is reported as 0.92%; in data set [2] (generation in SIF, 2 μM, 0 hr) it was 0.86%; in data set [3] (HIS9 0.5 mg/mL, 37° C., 0 min) it was 1.1%. Moreover, the metabolised at 1 h, 2 µM is 0.86% in data set [1] (simulated gastric fluid, pH 1.2, generation in SGF, 1 hr, read-out: Parent drug HMS5552 (%)) and 35.6% in data set [2] (simulated intestinal fluid, pH 6.8, generation in SIF, 1 hr, read-out: Parent drug HMS5552 (%)). Moreover, the metabolised at 2 h, 2 µM in [1] (simulated gastric fluid, pH 1.2, generation in SGF, 2 hr, read-out: Parent drug HMS5552 (%)) was 0.87%; in data set [2] (simulated intestinal fluid, pH 6.8, generation in SIF, 2 hr, read-out: Parent drug HMS5552 (%)), 46.6%; in [4] (setting [12]) it was 26.5%; in data set [4] (setting [13]) it was 5.8%. For the same molecule, the metabolised at 6 h, 2 µM is 1.02% in data set [1] (simulated gastric fluid, pH 1.2, generation in SGF, 6 hr, read-out: Parent drug HMS5552 (%)) and 72.8% in data set [2] (simulated intestinal fluid, pH 6.8, generation in SIF, 6 hr, read-out: Parent drug HMS5552 (%)). Besides, the metabolised at 24 h, 2 µM in data set [1] (simulated gastric fluid, pH 1.2, generation in SGF, 24 hr, read-out: Parent drug HMS5552 (%)) is 1.63%; in [2] (simulated intestinal fluid, pH 6.8, generation in SIF, 24 hr, read-out: Parent drug HMS5552 (%)), 73.4%. Also, the “Time to complete metabolism and conversion into parent drug HMS5552” value in data set [3] (human intestine S9) is no more than 5 min. The metabolised at 5 min in data set [3] (human, s9, pH 7.4, HIS9 0.5 mg/mL, 37° C., 5 min, read-out: Parent drug HMS5552 (%)) was 80%. Besides, in data set [3] (human, s9, pH 7.4, HIS9 0.5 mg/mL, 37° C., 15 min, read-out: Parent drug HMS5552 (%)), the metabolised at 0.25 h is 77.2%. Moreover, the metabolised at 0.5 h in [3] (human, s9, pH 7.4, HIS9 0.5 mg/mL, 37° C., 30 min, read-out: Parent drug HMS5552 (%)) is 79.8%. The metabolised at 0.75 h in data set [3] (human, s9, pH 7.4, HIS9 0.5 mg/mL, 37° C., 45 min, read-out: Parent drug HMS5552 (%)) is 81.2%. Also, in data set [3] (human, s9, pH 7.4, HIS9 0.5 mg/mL, 37° C., 60 min, read-out: Parent drug HMS5552 (%)), the metabolised at 1 h is 90.5%. The metabolised at 2 h, 10 µM amounted to 37.4% in [4] (setting [12]) and 5.6% in data set [4] (setting [13]). Besides, the metabolised at 2 h, 30 µM in data set [4] (setting [12]) is 26.8%; in data set [4] (setting [13]), 3.4%. The “Average recovery rate (%) A→B” value with Caco-2 cells (setting [14]) is given as 52.9%; with Caco-2 cells (setting [15]), 37.5%. Also, the “Average recovery rate (%) B→A” value with Caco-2 cells (setting [14]) worked out at 87.1%; in the data set with Caco-2 cells (setting [15]), 81.6%; in the data set with Caco-2 cells (setting [16]), 82.2%. The figures for the “The average apparent permeability Papp A→B” value in the data set on Caco-2 cells (setting [14]), with Caco-2 cells (setting [15]) and in the data set on Caco-2 cells (setting [16]) were 0.02977 10^−6 cm/s, 0.03187 10^−6 cm/s and 0.04322 10^−6 cm/s, respectively. The “Metabolism after intravenous injection (in words)” value in data set [5] is on record as “metabolized very rapidly”. In addition, the “Insulin level at 15 min vs corresponding dose group of HMS5552” value with C57BL/6J mice (oral 18.4 mg/kg) is “significantly higher than that of the corresponding dose group of HMS5552”. Also, the “Insulin level at 15 min vs vehicle control group” value in the data set with C57BL/6J mice (oral 18.4 mg/kg) and in the data set on C57BL/6J mice (oral 49.1 mg/kg) was “significantly higher than that of the vehicle control group” in each case. In the data set with C57BL/6J mice (oral 49.1 mg/kg, at 15 min, 30 min, 60 min and 120 min after glucose), the “OGTT blood glucose values vs vehicle control group” value is on record as “significantly lower than that of the vehicle control group”. Further, in the data set on C57BL/6J mice (oral 49.1 mg/kg, at 30 min, 60 min and 120 min after glucose), the “OGTT blood glucose values vs HMS5552-40 mg/kg group” value was “significantly lower than that of the HMS5552-40 mg/kg group”. Besides, in the data set on C57BL/6J mice (oral), the “Blood glucose level at 0 min (pre-glucose) vs vehicle control group” value is reported as “generally lower than that of the vehicle control group”. Further, the “Insulin level at 0 min vs vehicle control group and HMS5552 high-dose group” value in the data set on C57BL/6J mice (oral, high-dose group) is “significantly higher than that of the vehicle control group and the HMS5552 high-dose group”. Also, in the data set with C57BL/6J mice (oral, medium and high dose groups), the “OGTT AUC0-120min vs corresponding dose groups of HMS5552” value is given as “significantly lower than those of the corresponding dose groups of HMS5552”.
In the case of `CC(C)C[C@@H](C(=O)Nc1ccn(C[C@@H](O)CO)n1)N1CC(Oc2ccccc2Cl)=CC1=O` [HMS5552, (S)-2-(4-(2-chlorophenoxy)-2-oxo-2,5-dihydro-1H-pyrrol-1-yl)-N-(1-((R)-2,3-dihydroxypropyl)-1H-pyrazol-3-yl)-4-methylpentanamide, reference compound], in the data set with C57BL/6J mice (oral 40 mg/kg, at 30 min, 60 min and 120 min after glucose), the “OGTT blood glucose values vs vehicle control group” value is “significantly lower than that of the vehicle control group”. The “Blood glucose level at 0 min (pre-glucose) vs vehicle control group” value in the data set on C57BL/6J mice (oral) is “generally lower than that of the vehicle control group”. The “Insulin levels at 0 min and 15 min vs vehicle control group” value with C57BL/6J mice (oral, each dose group) is reported as “slightly higher than those in the vehicle control group, without significant difference”.
Turning to `CC(C)C[C@@H](C(=O)Nc1ccn(C[C@@H](O)COC(=O)c2cccnc2)n1)N1CC(Oc2ccccc2Cl)=CC1=O` [crystal form A of the free state, (R)-3-(3-((S)-2-(4-(2-chlorophenoxy)-2-oxo-2,5-dihydro-1H-pyrrol-1-yl)-4-methylpentanamido)-1H-pyrazol-1-yl)-2-hydroxypropyl nicotinate], the “Solubility (mg/mL)” value is “S>40.0 mg/mL” in data set [6] (DMAc); “S>42.0 mg/mL” in [6] (DMSO); “S>42.0 mg/mL” in data set [6] (MeOH); “S>40.0 mg/mL” in [6] (NMP); “S<1.1 mg/mL” in [6] (n-Heptane). In addition, the Moisture-induced weight gain entry was “less than 0.7%” in data set [7] (relative humidity of 95%) and “less than 0.5%” in data set [7] (relative humidity of less than or equal to 90%). Besides, the “Crystalline form after forced degradation (XRPD)” value in data set [8] (50° C., 80° C., 40° C./75% RH (unsealed), 1 day, 2 weeks, 4 weeks) is listed as “does not change”. Moreover, the “Effect of light on stability” value in data set [8] ([…]10^6 Lux·hr, near-UV not less than 200w·hr/m^2) is reported as “no effect on the stability”. The “Purity (Area %)” value in [9] (0 h) turned out to be 98.17 Area %; in [9] (60° C., Day 6, without cover), 99.03 Area %; in data set [9] (60° C., Day 14, without cover) it was 99.11 Area %; in data set [10] (0 hour) it was 98.17 Area %; in data set [10] (90% RH, Day 6, without cover) it was 98.99 Area %; in data set [10] (90% RH, Day 14, without cover), 99.09 Area %. Moreover, the “Purity (Area %)” value in data set [11] (0 hour) is recorded as 98.17 Area %; in data set [11] (direct sunlight, Day 4), 99.07 Area %; in [11] (direct sunlight, Day 15) it was 99.10 Area %. In addition, in [9] (60° C. oven without cover), the “High-temperature stability (HPLC), conclusion” value is “still stable after being placed at 60 °C for 14 days”. Moreover, the “High-humidity stability (HPLC), conclusion” value in data set [10] (90% RH without cover) was “still stable after being placed under the condition of 90% relative humidity for 14 days”. In addition, the “Photostability (HPLC), conclusion” value in [11] (direct sunlight) is listed as “still stable after being placed under sunlight for 15 days”.
